These results are taken from US9512440B2, “Modulation of receptor-like kinases for promotion of plant growth” (IOWA STATE UNIVERSITY RESEARCH FOUNDATION, INC., priority 2009, dated 2016).

One experiment relates to HERK1, THE1 and FER. Put plainly: quantitative RT-PCR of HERK1, THE1 and FER expression after hormone treatment. It is filed as in vivo, Arabidopsis thaliana. The source says:
(1A) The expression of HERK1, THE1 and FER is induced by BL treatment in 10-day-old seedlings and 4-week-old adult plants. Triplicate biological samples were used to prepare RNA for quantitative RT PCR. The relative expression levels compared to UBQ5 gene were used to determine the BL-induction levels of each gene. The averages and standard deviations from three biological repeats are shown. […] Ten-day-old seedlings were used to prepare RNA for qRT-PCR as described in (1A). (1C-E) HERK1 cellular localization: A HERK1-GFP (1C) or BES1-D-GFP (1D) construct was introduced into protoplasts or transgenic plants (1E). HERK1 is mostly localized at the plasma membrane (1C and 1E), while BES1-D is primarily in the nucleus (1D). […] Recombinant proteins fused with MBP representing the wild-type HERK1 kinase domain (WT), and a mutant version with disrupted kinase activity (mutant), were used in kinase assay. […] The bars in 1G/1H and 1I represent 2.5 and 10 mm, respectively.
(8A) Regulation of HERK1, THE1 and FER as well as other CrRLK family members by BL. The data are derived from microarray experiments with light-growing seedlings treated with 10 nM BL for 3 hr, which is published in a public website (http://bbc.botany.utoronto.ca/efp/cgi-bin/efpWeb.cgi). […] The averages and standard deviations for 2 biological replicates are shown. (8C) the herk1 the1 double mutant has a normal GA response in a hypocotyl elongation assay. […]
For reverse transcription-polymerase chain reaction (RT-PCR), 2 μg total RNA was reverse-transcribed to cDNA by SuperScript II Reverse Transcriptase (Invitrogen). For real-time quantitative RT-PCR, the primers were designed so that the products are between 200-300 bps. The SYBR Green PCR Master mix (Applied Biosystems) was used and the PCR reactions were run on the Mx4000® multiplex quantitative PCR system (Stratagene). Two or three biological replicates were each analyzed with 2-3 RT-PCR reactions. For semi-quantitative RT-PCR, the same amount of cDNA was used for each PCR reaction. […]

The test system of experiment [1] is wild-type 24-day-old adult plants. Description: Affymetrix microarray gene expression, wild-type adult plants with BL. It is filed as in vivo, Arabidopsis thaliana. As for the experimental part:
(§1) Microarray experiments were performed with 24-day-old adult plants. The whole plants were sprayed with either water or […] and incubate for 2.5 hours. The plants were pooled into three groups as triplicates (8 plants per group). Total RNA was prepared with RNeasy Plant Mini Kit (QIAGEN) and used to make probes for microarray experiments with Affymetrix Arabidopsis Genomic arrays. The probe labeling, hybridization, and scanning were performed according to manufacture's instructions. Microarray data was normalized by the MAS 5.0 method implemented in the R package affy and the linear model was applied to two sample comparison (samples with and without BL treatment or WT compared to mutant) using the limma package (39, 40). Genes with an adjusted p-value <=0.01 were considered to be differentially expressed. The BR-induced genes, HERK1/THE regulated genes were used for clustering analysis with the GENESPRING program (Silicon Genetics) using Pearson Correlation.

Experiment [2] relates to herk1 the1 double mutant 24-day-old adult plants. Put plainly: Affymetrix microarray gene expression, herk1 the1 double mutant adult plants with BL. Format: in vivo, Arabidopsis thaliana. As for the experimental part: as §1
A further experiment deals with CrRLK1L family RLKs. Put plainly: microarray of CrRLK1L family expression, 2-week-old seedlings with or without BL. It is filed as in vivo, Arabidopsis thaliana. As to conditions: wild-type (En-2), BL 1 uM, 3 hr. As for the experimental part: (9A) The expression of CrRLK family RLKs by BL in WT and bes1-D mutant. Microarrays were performed with 2-week-old seedlings with or without BL treatment (1 uM, 3 hr). At5g38990 and At5g39000 have the same probe set in Affymetrix ATH1 Genome arrays, so only the former is shown. (9B) BR responses of the indicated mutants at the seedling stage, performed as described. (9C) Plant phenotypes of 24-day-old adult plants. The bar represents 10 mm. (9D) Petiole lengths of the sixth leaf in WT and mutants. Averages and standard deviations from 10 plants are shown. (E) A model for HERK signaling and its crosstalk with BR pathway.
BRs function to regulate cell elongation and many other processes^10-13. BRs signal through a membrane-localized receptor kinase BRI1 and other signaling components^10, 14-16 to control BES1 and BZR1 family transcription factors, which mediate the expression of many genes for BR responses^17-20. […] To further confirm that these RLK genes are modulated by BRs and/or BES1, we performed a microarray experiment with bes-D mutant^19, a constitutive BR response mutant due to highly accumulated BES1 protein, with En-2 as wild-type control (L.L. & Y.Y. in preparation). The expression of all CrRLK1L members is examined (FIG. 5A).

The next experiment concerns CrRLK family members. As to conditions: 10 nM BL for 3 hr; cited from earlier work.
The mark [3] stands for this setting: adult plants, microarray, adjusted p-value <=0.01.

As to `O=C(O)Cc1c[nH]c2ccccc12` [IAA], in the experiment with HERK1, THE1 and FER (10-day-old seedlings, qRT-PCR), the “regulation of expression of HERK1” value is “appears to induce”.
For `CC(C)[C@H](C)[C@@H](O)[C@H](O)[C@@H](C)[C@H]1CC[C@H]2[C@@H]3COC(=O)[C@H]4C[C@H](O)[C@H](O)C[C@]4(C)[C@H]3CC[C@]12C` [BL, brassinolide], the “up-regulation of HERK1, THE1 and FER expression” value with HERK1, THE1 and FER (seedlings and/or adult plants, relative to UBQ5, p<0.01) is 20-80%. Besides, the “gene expression level At3g45960 (EXPL3)” value is reported as 92 in experiment [1] (WT + BL, WT-BL 24) and 44 in experiment [2] (herk1 the1-BL 18). In addition, the “gene expression level AT1G10550 (XTH33)” value was 223 in experiment [1] (WT + BL, WT-BL 47) and 191 in experiment [2] (herk1 the1-BL 48). For the same compound, the “gene expression level At1g65310 (XTH17)” value was 214 in experiment [1] (WT + BL, WT-BL 137) and 302 in experiment [2] (herk1 the1-BL 95). The “gene expression level At1g20190 (EXP11)” value in experiment [1] (WT + BL, WT-BL 141) is given as 395; in experiment [2] (herk1 the1-BL 35), 225. Besides, the “gene expression level At4g30290 (XTH19)” value was determined as 297 in experiment [1] (WT + BL, WT-BL 153) and 259 in experiment [2] (herk1 the1-BL 162). Also, the “gene expression level At4g38400 (EXPL2)” value in experiment [1] (WT + BL, WT-BL 188) is listed as 433; in experiment [2] (herk1 the1-BL 151), 381. The “gene expression level At2g20750 (EXPB1)” value was 198 in experiment [1] (WT + BL, WT-BL 295) and 157 in experiment [2] (herk1 the1-BL 161). In addition, the “gene expression level At2g37640 (EXP3)” value in experiment [1] (WT + BL, WT-BL 384) is 641; in experiment [2] (herk1 the1-BL 340), 594. Besides, the “gene expression level At3g07010 (PLL20)” value in experiment [1] (WT + BL, WT-BL 427) was found to be 939; in experiment [2] (herk1 the1-BL 325) it was 829. The “gene expression level AT1G11545 (XTH8)” value in experiment [1] (WT + BL, WT-BL 453) came to 1178; in experiment [2] (herk1 the1-BL 357) it was 1249. In addition, the “gene expression level At3g23730 (XTH16)” value in experiment [1] (WT + BL, WT-BL 559) worked out at 819; in experiment [2] (herk1 the1-BL 636), 1069. For the same compound, the “gene expression level At3g45970 (EXPL1)” value in experiment [1] (WT + BL, WT-BL 581) was determined as 1339; in experiment [2] (herk1 the1-BL 529), 970. In addition, the “gene expression level At2g40610 (EXP8)” value was determined as 2407 in experiment [1] (WT + BL, WT-BL 1006) and 1586 in experiment [2] (herk1 the1-BL 437). The “gene expression level AT5G57560 (XTH22)” value in experiment [1] (WT + BL, WT-BL 2277) stood at 7344; in experiment [2] (herk1 the1-BL 2728), 7941. The “gene expression level At3g29030 (EXP5)” value is reported as 2112 in experiment [1] (WT + BL, WT-BL 2323) and 1848 in experiment [2] (herk1 the1-BL 1523). Moreover, the “gene expression level At1g04680 (PLL26)” value in experiment [1] (WT + BL, WT-BL 2466) was 3402; in experiment [2] (herk1 the1-BL 1982), 2932. Moreover, the “gene expression level At4g37800 (XTH7)” value in experiment [1] (WT + BL, WT-BL 2899) was determined as 3419; in experiment [2] (herk1 the1-BL 1831), 2864. Further, the “gene expression level At2g28950 (EXP6)” value came to 2524 in experiment [1] (WT + BL, WT-BL 3287) and 1919 in experiment [2] (herk1 the1-BL 2074). Further, the “gene expression level At1g69530 (EXP1)” value was found to be 8465 in experiment [1] (WT + BL, WT-BL 6798) and 6462 in experiment [2] (herk1 the1-BL 3595). Besides, the “gene expression level At2g06850 (XTH4)” value was determined as 13455 in experiment [1] (WT + BL, WT-BL 7247) and 11194 in experiment [2] (herk1 the1-BL 5096). Also, the “number of genes whose expression BL induces” value in experiment [1] (setting [3]) turned out to be 650. For the same compound, in experiment [1] (setting [3]), the “number of genes whose expression BL represses” value amounted to 520. Besides, the “regulation of FER, THE1, HERK1, At1g30570 (HERK2), At2g39360 and At5g24010” value with CrRLK1L family RLKs was “slightly upregulated”. In addition, the “induction of HERK1, THE1 and FER among CrRLK family members” value in the experiment on CrRLK family members is on record as “most highly induced”. For the same compound, the “regulation of At2g39360, At5g24010, At1g30570, At5g38990/At5g39000 and At5g39020” value in the experiment on CrRLK family members is recorded as “slightly induced”.
For the compound `C=C1C[C@]23C[C@@]1(O)CC[C@H]2[C@@]12C=C[C@H](O)[C@@](C)(C(=O)O1)[C@H]2[C@@H]3C(=O)O` [GA3], the “regulation of expression of HERK1, THE1, and FER” value in the experiment with HERK1, THE1 and FER (10-day-old seedlings, qRT-PCR) is reported as “up-regulates”.
